Experimental data: US20220380374A1, “1,4-DIHYDROBENZO[D]PYRAZOLO[3,4-F][1,3]DIAZEPINE DERIVATIVES AND RELATED COMPOUNDS AS LRRK2, NUAK1 AND/OR TYK2 KINASE MODULATORS FOR THE TREATMENT OF E.G. AUTOIMMUNE DISEASE” (Origenis GMBH, priority 2019, published 2022)

Columns and labels:
[1] = molecular target: T1, wt human TYK2, catalytic site (Homo sapiens, UniProt P29597); assay: HTRF KinEASE assay, TYK2; type: biochemical; settings: 1 μM ATP; read-out: IC50, inhibitory activity toward TYK2
T1 construct: 2 nM wt human TYK2, catalytic site (SignalChem/CAN); purchased SignalChem/CAN
T1 sequence (P29597 897-1176 limits assumed): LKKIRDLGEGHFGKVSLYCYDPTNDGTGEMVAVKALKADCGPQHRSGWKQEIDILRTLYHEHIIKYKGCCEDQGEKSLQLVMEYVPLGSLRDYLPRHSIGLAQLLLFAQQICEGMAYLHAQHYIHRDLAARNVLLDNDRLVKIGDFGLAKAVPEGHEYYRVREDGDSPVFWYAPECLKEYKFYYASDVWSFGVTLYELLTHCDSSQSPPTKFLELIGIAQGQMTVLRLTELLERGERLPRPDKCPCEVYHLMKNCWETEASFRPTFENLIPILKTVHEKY
Method in brief: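 2 nM wt human TYK2 catalytic domain with 1 μM biotinylated TK substrate and 1 μM ATP in 1× kinase buffer was incubated ≥30 min at room temperature. Antibody and streptavidin-XL665 were added, and HTRF emission ratios were read after 60 min.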

[2] = molecular target: T2, wt human NUAK1, full length (Homo sapiens, UniProt O60285); assay: TR-FRET LanthaScreen Eu Kinase Binding Assay, NUAK1; settings: 5 nM Kinase Tracer 236; read-out: IC50, inhibitory activity toward NUAK1
T2 construct: 8 nM wt human NUAK1, full length (ThermoFisher/USA); purchased ThermoFisher/USA
T2 sequence (O60285 1-661): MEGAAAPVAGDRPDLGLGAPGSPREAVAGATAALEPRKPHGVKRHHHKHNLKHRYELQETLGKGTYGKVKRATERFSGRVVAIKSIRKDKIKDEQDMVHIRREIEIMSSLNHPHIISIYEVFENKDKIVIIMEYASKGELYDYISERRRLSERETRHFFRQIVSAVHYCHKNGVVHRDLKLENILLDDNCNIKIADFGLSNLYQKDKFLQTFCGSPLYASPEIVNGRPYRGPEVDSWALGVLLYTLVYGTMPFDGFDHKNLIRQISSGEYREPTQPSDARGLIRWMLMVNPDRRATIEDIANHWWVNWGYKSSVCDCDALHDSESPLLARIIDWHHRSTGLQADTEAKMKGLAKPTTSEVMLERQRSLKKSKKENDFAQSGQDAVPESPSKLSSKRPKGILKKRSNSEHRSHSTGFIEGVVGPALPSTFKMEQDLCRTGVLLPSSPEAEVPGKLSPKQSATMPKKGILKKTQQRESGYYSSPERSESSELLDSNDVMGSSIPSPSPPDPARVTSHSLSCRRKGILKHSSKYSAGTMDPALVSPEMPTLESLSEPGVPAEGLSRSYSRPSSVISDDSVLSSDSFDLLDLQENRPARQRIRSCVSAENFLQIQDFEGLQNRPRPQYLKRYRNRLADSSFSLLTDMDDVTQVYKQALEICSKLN
Method in brief: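 TR-FRET tracer-displacement binding with 8 nM full-length wild-type human NUAK1, 2 nM Eu-anti-His antibody and 5 nM Kinase Tracer 236 in 1× Kinase Buffer A (final). Compound, kinase/antibody and tracer incubated 1 h at room temperature; emission ratios analysed per kit protocol.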

An IC50 [1] of 10 to 100 nM and an IC50 [2] of 10 to 100 nM were found for `O=C(NCC(F)(F)F)c1cc2c(cc1Cl)-c1n[nH]cc1N=C(c1c(F)cccc1F)N2` [Compound 202, 9-chloro-5-(2,6-difluorophenyl)-N-(2,2,2-trifluoroethyl)-2,6-dihydrobenzo[d]pyrazolo[3,4-f][1,3]diazepine-8-carboxamide] in this work.

An IC50 [1] of 10 to 100 nM and an IC50 [2] of 10 to 100 nM were found for `Fc1cccc(F)c1C1=Nc2cn[nH]c2-c2cn(-c3ccccc3)nc2N1` [Compound 68, 5-(2,6-difluorophenyl)-8-phenyl-6,8-dihydro-1H-dipyrazolo[3,4-d:3 ′,4′-f][1,3]diazepine] in this work.

An IC50 [1] of 100 to 1000 nM and an IC50 [2] of 10 to 100 nM were found for `Fc1cccc(F)c1C1=Nc2cn[nH]c2-c2cc(OC(F)F)ccc2N1` [Compound 42, 9-(difluoromethoxy)-5-(2,6-difluorophenyl)-1,6-dihydrobenzo[d]pyrazolo[3,4-f][1,3]diazepine] in this work.

An IC50 [1] of 10 to 100 nM and an IC50 [2] of 100 to 1000 nM were found for `O=C(NC1CCOCC1)c1ccc2c(n1)N=C(c1c(F)cccc1F)Nc1cn[nH]c1-2` [Compound 105, 5-(2,6-difluorophenyl)-N-(tetrahydro-2H-pyran-4-yl)-1,4-dihydropyrazolo[4,3-d]pyrido[3,2-f][1,3]diazepine-8-carboxamide] in this work.
